# From a melting point compilation (Tetko et al.; mined from patent text by program, amines drawn as free bases though some values may be those of a salt)
row,melting point [°C],Structure (SMILES)
1,160 to 162,CCc1cc(Oc2ccc(NC(=O)Nc3ccc(C)cc3)cc2)ncn1
2,103 to 105,CC(=O)NC[C@H]1CN(c2ccc(N3CCSC3)c(F)c2)C(=O)O1
3,100 to 101,COC(=O)C1C(c2ccc(F)c(C)c2)=CC2(CC1(C)C)SCCCS2 (stereo not given)
4,180 to 181,COC(=O)c1cn2c(n1)COc1cc(C)ccc1-2
5,154 to 155,CC1(C)SC(c2cc(Br)c(O)c(Br)c2)NC1C(=O)O (stereo not given)
6,114 to 116,CCCCOc1ccc2c(c1)C(N(C)S(C)(=O)=O)=CC(C)(C)O2
7,228 to 229,Cc1nc2c3c(ccc2n1C)[C@H](O)C[C@H](c1ccccc1)O3 (relative stereo)
8,133 to 134,CC(O)Cc1ccc2oc(=O)[nH]c2c1 (stereo not given)
9,154 to 155,CSc1ccc(/C=C2\N=C(C)OC2=O)cc1
10,153,CC(=O)OC1CSC(Oc2cnccc2Br)C(OC(C)=O)C1OC(C)=O (stereo not given)
11,89 to 91,CN[C@@H]1CN(C(=O)c2nn(C)c3ccccc23)C[C@@H]1C (relative stereo)
12,> 300,Cc1ccc2c(n1)sc1c(O)cnnc12
13,278 to 279,Cc1ccc([N+](=O)[O-])c(C(=O)Nc2nnn[nH]2)c1
14,113 to 114,COc1ccc2cc([C@H](C)C(=O)OCC(=O)N(C)CC(=O)OCCO)ccc2c1

# More lines, now with the values behind:
row,Structure (SMILES),melting point [°C]
1,NN1C(=O)C(C(=O)C(Cc2ccc3ccccc3c2)NC(=O)OCc2ccccc2)C1Oc1ccccc1 (stereo not given),205 to 206
2,Oc1cccc(CCc2nc3ccccc3s2)c1,129 to 130
3,CC(C)(CCn1cnnc1)NCC(O)c1ccc(OCc2ccccc2)c(CO)c1 (stereo not given),139 to 141
4,CCn1nc(-c2nc(C#N)c(C#N)nc2-c2ccccc2)ccc1=O,201 to 203
5,CCCCNS(=O)(=O)c1cc(C(=O)CCl)ccc1Cl,89
6,CCCc1nn(CC)c2c(=O)[nH]c(-c3cc(S(=O)(=O)N4CCN(CCO)CC4)ccc3OCC)nc12,191 to 193
7,O=C(c1ccccc1)C(Cl)Cn1cnc(Cl)c1 (stereo not given),106 to 110
8,C=C(CCC(=O)N1C(=O)OC[C@H]1c1ccccc1)c1ccc(F)cc1F,50 to 55
9,CN1C(=O)CC[C@H]1COc1cccnc1,73 to 74
10,O=C(CC(CSC(=O)c1ccccc1)C(=O)O)c1ccccc1 (stereo not given),110 to 111
11,CNc1ccc(C(=O)Nc2ccccc2[N+](=O)[O-])cc1,187
12,O=C1CN(c2nccc(Oc3ccc(NC(=O)c4cc(F)cc(N5CCCCC5)c4)c4ccccc34)n2)CCN1,140 to 142
13,COCCN(c1cccc2cc(-c3nccs3)[nH]c12)S(=O)(=O)c1cccs1,113 to 114
14,Cc1ccc(C#CCOCCn2cnc3c(N)nc4ccccc4c32)cc1C,214 to 216
15,CCOc1nn(Cc2ccnc(OCc3cn4c(-c5ccccc5)cccc4n3)c2)cc1CCC(=O)O,177 to 178
16,CN1C(=O)N(CC(COc2ccc(-c3ccc(Cl)cc3)cc2)N(O)C=O)C(=O)C1(C)C (stereo not given),124 to 125
17,COC(=O)C(O)C(CC(C)C)NC(=O)C(Cc1c[nH]cn1)NC(=O)C(CC(=O)N1CCCCC1)Cc1cccc2ccccc12 (mixture of isomers),91 to 97
18,CCCC[C@H]1CC[C@H](C(=O)O)CC1,37 to 39
19,Cc1ccc(S(=O)(=O)Oc2ccccc2-c2cc3c(C(N)=O)cccc3[nH]2)cc1,135
20,Cc1ccc([N+](=O)[O-])c2c1CC(C)O2 (stereo not given),69 to 71
21,CCOc1ccc(N(C)C=C(C#N)C#N)cc1,147 to 148
22,COc1c(F)cc(CCCn2nnnc2S)cc1F,64 to 65
23,CC(C)(C)C1=CC(O)(C(F)(F)F)C=C(C(C)(C)C)C1=O,93 to 94
24,O=C1c2ccccc2C(=O)N1CC#Cc1ccc2c(c1)C(c1ccccc1F)=NCc1nnc(C(F)(F)F)n1-2,204 to 206
25,Nc1c(NC(=O)CCl)ccc2c1C(=O)c1ccccc1C2=O,193 to 194
26,COc1cc(CNc2ccc3c(c2)N2CCCN=C2S3)cc(OC)c1OC,191
